Data from US10143666B2, “Small molecule inhibitors targeting CAG-repeat RNA toxicity in polyglutamine diseases” (The Chinese University of Hong Kong, priority 2015, dated 2018).

Tests used:
[1] = system: DsRedCAG100 fly; experiment: Pseudopupil assay in DsRedCAG100 fly (expanded CAG-repeat RNA toxicity); format: in vivo, Drosophila; conditions: 12 day-old adult flies
From the text: The synthesis of DB213 was described in Marcheschi et al. (Scheme 1)^12, see FIG. 1. By using a MJD (one kind of polyQ diseases) Drosophila disease model, the inventors established an effective screening platform to test a series of synthesized small molecules for their activity to suppress polyQ-induced neurodegeneration. […] To test whether the compounds acted on CAG-repeat RNA level, another Drosophila model, DsRedCAG100^6, was employed. […] Therefore, DB213 was confirmed to modulate expanded CAG-repeat RNA-mediated toxicity in vivo.
(§1) Flies were raised at 21.5° C. on cornmeal medium supplemented with dry yeast. Pseudopupil assay was performed on 12 day-old adult flies as mentioned previously^18. Images were captured by SPOT Insight CCD camera controlled by the SPOT Advanced software (Diagnostic instruments Inc.). External eye assay was performed on 12 day-old adult flies by Olympus SZX-12 stereomicroscope. Eye images were captured using a SPOT Insight CCD camera (Diagnostic instruments Inc.).

[2] = system: α-synuclein fly; experiment: Neurodegeneration in α-synuclein fly (Parkinson's disease model); format: in vivo, Drosophila
Procedure: (§2) Other disease fly models, including α-synuclein (Parkinson's disease)^13, CTG480 (Myotonic dystrophy 1)^14 and CGG90 (Fragile X syndrome)^15 were employed to address the specificity of DB213 on trinucleotide repeat expansion RNA toxicity.
as §1

[3] = system: CTG480 fly; experiment: Neurodegeneration in CTG480 fly (Myotonic dystrophy 1 model); format: in vivo, Drosophila
Procedure: as §2, §1

[4] = system: trMJDCAG78 cells; experiment: LDH cytotoxicity assay, trMJDCAG78 cell model; format: cell-based, human; conditions: both RNA and polyQ protein toxicities
Procedure: It was next investigated whether DB213 could mitigate expanded CAG-repeat RNA-mediated toxicity in SK-N-MC human neuronal cell. […] Taken together, DB213 could suppress the expanded CAG RNA-mediated but not polyQ protein-mediate toxicity in human neuronal cell.
SK-N-MC human neuronal cells were seeded on a 24-well plate and lactate dehydrogenase enzyme activity in the cell culture medium was measured 72 hours post-transfection and drugs treatment using the Cytotox 96 non-radioactive cytotoxicity assay (Promega).

[5] = system: R6/2 Huntington's mice; experiment: Tolerability / mortality in R6/2 Huntington's mice after i.n. or i.v. dosing; conditions: for Mice lost in total: all dose groups; for Highest tolerated dose: R6/2 mice
Procedure: The objective of this study was to investigate the tolerability of i.n. or i.v. administrated Compound-5 (DB213) treatment on 1) neurological index (NI) scores, 2) body weight, 3) body temperature and 4) activity in open field test in R6/2 Huntington's mice.
i.n.: Group 1: 3 female and 3 male R6/2 mice treated with i.n. vehicle starting at 6 weeks of age and continuing for 7 days; Group 2: 3 female and 3 male R6/2 mice treated i.n. daily with Compound-5 at 50 mg/kg starting at 6 weeks of age and continuing for 7 days; Group 3: 3 female and 3 male R6/2 mice treated i.n. daily with Compound-5 at 100 mg/kg starting at 6 weeks of age and continuing for 7 days; Group 4: 3 female and 3 male R6/2 mice treated i.n. daily with Compound-5 at 200 mg/kg starting at 6 weeks of age and continuing for 7 days; Group 5: 3 female and 3 male R6/2 mice treated i.n. daily with Compound-5 at 300 mg/kg starting at 6 weeks of age and continuing for 7 days.
Compound-5 or vehicle was administered i.n. daily or i.v. twice-a-week starting at 6 weeks of age for 7 days.
i.v. administration: mice received 2 weekly i.v. injections into the tail vein. Mice were weighed on each treatment day and the dose adjusted accordingly to 1 ml/kg dose volume. For example, a mouse with a 30 g body weight received an i.v. injection of 30 μl. The whole i.v. injection process took 5-8 min per mouse.
i.n. administration: using a three fingered scruff, each mouse was restrained twice and held with neck parallel to the table while the compound was administered. The volume was 0.56 ml/kg. For example, a mouse with a 30 g body weight received in total 16.8 μl. During each restraint, 8.4 μl was administered to the left nostril as two 4.2 μl drops, followed by a 15 sec hold, and 8.4 μl was administered to the right nostril as two 4.2 μl drops, followed by a 15 sec hold. Notes were taken on the success of delivery and any lost volume greater than 2 μl were re-administered.
Animals were monitored twice-a-day by laboratory personnel (8 am and […]). […] Definitions of acceptable endpoints included: no spontaneous movements and inability to drink or eat in 24-h observation period, massive bleeding, spontaneous inflammation, missing anatomy, swelling or tumors larger than 20 mm, and inability to right itself in 30 sec period.

[6] = system: R6/2 Huntington's mice; experiment: Open field test in R6/2 mice; format: in vivo
Procedure: The body weights were measured daily.
Open field test was performed at baseline, and on day 7. The mice were brought to the experimental room for at least 1 h acclimation to the experimental room conditions prior to testing. Activity chambers (Med Associates Inc, St Albans, Vt.; 27×27×20.3 cm) were equipped with IR beams. Mice were placed in the center of the chamber and their behavior was recorded for 30 min in 5-minute bins. Quantitative analysis was performed on the following five dependent measures: total locomotion, locomotion in the center of the open field, rearing rate in the center, total rearing frequency and velocity. Animals were tested at low-stress conditions where the light was lowered to approximately 10-30 lux of red light.

[7] = i.v. 200 mg/kg group (so in the source)
[8] = i.v. 300 mg/kg group (so in the source)

CN(C)CCCNC(=N)c1ccc(C(=N)NCCCN(C)C)cc1.Cl.Cl.Cl.Cl [DB213]
Suppression of DsRedCAG100 RNA-mediated toxicity (neurodegeneration) [1]: suppressed the DsRedCAG100 RNA-mediated toxicity in a dose-dependent manner
Suppression of neurodegeneration [2]: did not suppress the neurodegeneration
Suppression of neurodegeneration [3]: did not suppress the neurodegeneration
Cell death (LDH assay) [4]: only partially inhibited the abnormal cell death
Mortality ([5]; both intranasal and intravenous treatment): increase mortality in dose-dependent manner
Mice lost ([5]; i.n. daily 50 mg/kg, 7 days): 1 mouse
Mice lost, share of group ([5]; i.n. daily 50 mg/kg, 7 days): 16.7%
Mice lost ([5]; i.n. daily 100 mg/kg, 7 days): 2 mice
Mice lost, share of group ([5]; i.n. daily 100 mg/kg, 7 days): 33.3%
Mice lost ([5]; i.n. daily 200 mg/kg, 7 days): 4 mice
Mice lost, share of group ([5]; i.n. daily 200 mg/kg, 7 days): 66.7%
Mice lost ([5]; i.n. daily 300 mg/kg, 7 days): 3 mice
Mice lost, share of group ([5]; i.n. daily 300 mg/kg, 7 days): 50%
Mice lost in total ([5]; i.n. daily, 7 days): 10 mice
Mice lost [5, 7]: 2 mice
Mice lost, share of group [5, 7]: 100%
Mice lost [5, 8]: 2 mice
Mice lost, share of group [5, 8]: 100%
Mice lost ([5]; i.v. twice-a-week 25 mg/kg): 1 mouse
Mice lost, share of group ([5]; i.v. twice-a-week 25 mg/kg): 12.5%
Mice lost ([5]; i.v. twice-a-week 50 mg/kg): 3 mice
Mice lost, share of group ([5]; i.v. twice-a-week 50 mg/kg): 75%
Mice lost in total ([5]; i.v. twice-a-week): 8 mice
Highest tolerated dose ([5]; intranasally): 50 to 100 mg/kg
Highest tolerated dose ([5]; intravenously): 12.5 to 25 mg/kg
Movement activity in open field test ([6]; day 7 post-dosing): no effect on movement activity
Open field distance, rearings, distance in center, rearings in center or velocity, differences between treatment groups ([6]; i.n. dosing, day 7): no differences
Open field distance, rearings, distance in center, rearings in center or velocity, differences between treatment groups ([6]; i.v. dosing, baseline or day 7): no differences
